Results from patent US9447385B2, “Butanol dehydrogenase enzyme from the bacterium Achromobacter xylosoxidans” (BUTAMAX ADVANCED BIOFUELS LLC, priority 2008, dated 2016).
Read-outs that look alike come from different tables or passages of the source.

What was measured:
[1] = system: A. xylosoxidans butanol dehydrogenase; details: alcohol substrate (oxidation); 35° C., TRIS buffer pH 8.5, 3 mM NAD+; crude enzyme from A. xylosoxidans
Method: Reactions with alcohol substrates were performed at 35° C. in TRIS buffer, pH 8.5, containing 3 mM NAD^+ and varying concentrations of alcohol. Reactions with ketone or aldehyde substrates were performed at 35° C. with 50 mM MES buffer, pH 6.0, 200 μM NADH and varying concentrations of the ketone or aldehyde. Crude enzyme preparations were used, obtained either from A. xylosoxidans or recombinant E. coli strain Mach1/pTrc99a::sadB (described in Example 3 below).

[2] = system: butanol dehydrogenase from A. xylosoxidans; assay: Activity stain on non-denaturing polyacrylamide gel (MTT/PMS coupled); type: biochemical, Achromobacter xylosoxidans; details: NAD+, MTT, PMS
From the text: The purified enzyme and molecular weight standards were subjected to electrophoresis using non-denaturing polyacrylamide gels (8-16% Tris-Glycine gradient gel, Invitrogen). After electrophoresis, the gels were removed and stained for protein (Simply Blue Protein Stain, Invitrogen) or stained for activity by coupling the conversion of 1-butanol plus NAD^+ to butyraldehyde plus NADH with the conversion of 3 [4,5-dimethylthiazol-2-yl]-2,5-diphenyltetrazolium bromide (MTT) to a deeply colored formazan, using phenazine methosulfate (PMS) as mediator (Tang et al., J. Bacteriol. 140, 182 (1997)). The activity solution contained 0.5 mg PMS, 5 mg MTT, 20 mg NAD^+ and 1 mL of 1-butanol in a total volume of 25 mL.

[3] = system: A. xylosoxidans butanol dehydrogenase; assay: Kinetic characterization of butanol dehydrogenase, reduction of ketone or aldehyde substrates; type: biochemical, Achromobacter xylosoxidans; details: 35° C., 50 mM MES pH 6.0, 200 μM NADH
From the text: The secondary alcohol dehydrogenase (sadB) from Achromobacter xylosoxidans was cloned into the vector pTrc99a (Amann et al., Gene 69(2):301-315 (1988)). The coding region (SEQ ID NO: 1) was amplified using standard conditions from A. xylosoxidans genomic DNA, prepared using a Gentra Puregene kit (Gentra Systems, Inc., Minneapolis, Minn.; catalog number D-5500A) following the recommended protocol for gram negative organisms using forward and reverse primers N473 and N469 (SEQ ID NOs: 24 and 23). The PCR product was TOPO-Blunt cloned into pCR4 BLUNT (Invitrogen) to produce pCR4Blunt::sadB, which was used to transform E. coli Mach-1 cells. Plasmid DNA was subsequently isolated from four clones, and the sequence verified. The plasmid was then digested with EcoRI, releasing the sadB fragment, which was ligated with EcoRI-digested pTrc99a to generate pTrc99a::sadB. The E. coli Mach 1 cells were transformed with the plasmid and the resulting transformant was named Mach1/pTrc99a::sadB.

[4] = ketone or aldehyde substrate (reduction), crude enzyme from A. xylosoxidans
[5] = aldehyde substrate (reduction), crude enzyme from E. coli strain Mach1/pTrc99a

| Molecule | Km [1] [µM] | Vmax [1] [µmol/min] | activity staining of the enzyme band with the alcohol as substrate [2] | Km [3, 4] [µM] | Vmax [3, 4] [µmol/min] | further results |
| --- | --- | --- | --- | --- | --- | --- |
| 1-Butanol | 4600 | 0.02 |  |  |  |  |
| CCC(C)O (stereo not drawn) [2-Butanol] | 300 | 0.22 | active |  |  |  |
| CCC(C)=O [2-Butanone] |  |  |  | 500 | 0.35 |  |
| CCCC=O [Butyraldehyde] |  |  |  | 7300 | 0.67 |  |
| CC(C)C=O [Isobutyraldehyde] |  |  |  |  |  | Km [3, 5]: 1900 µM; Vmax [3, 5]: 1.1 µmol/min |
| CC(C)CO [isobutanol] |  |  | active |  |  |  |
